Experimental data taken from PMC8003975 (Cancers, 2021).
≈ marks a conversion by molar mass, not a printed value. Where “and” joins values, the source holds several entries; their conditions need not be identical. Equal values may be shown once. Read-outs that look alike come from different tables or passages of the source.

Experiments:
JHU029 xenograft = experiment: Tumorigenicity assay, HNC xenograft model; type: in vivo, BALB/c athymic nude mice
Experimental: Figure 6 Therapeutic effect of momordicine-I in JHU029 xenograft model. JHU029 cells (1.5 × 10^6) cells were injected subcutaneously into the flank of nude mice. After the formation of a palpable tumor, mice were randomly divided into three groups (n = 5): Control (without any treatment), BME group (30% BME through drinking water) and M-I group (30 mg/kg IP, once in a day and every day). (A) Body weight was measured in control and treated mice. (B) Representative images of tumors in control and treatment groups. (C) Tumors were measured using a slide caliper and tumor volumes were calculated. Arrow indicates starting point BME/M-I treatment. (D) Control or treated tumor lysates were subjected to Western blot analysis for c-Met and c-Myc expression using specific antibodies and representative bands are shown. The blot was reprobed with an antibody to Actin for normalization. […] Small bar indicates standard error (*, p < 0.05; *** p < 0.001).
(§1) JHU029 or Cal27 cells (1.5 × 10^6) containing 40% Matrigel were injected subcutaneously into the flank of BALB/c athymic nude mice (7–8 weeks old). When the palpable tumor was developed (>60 mm^3), mice were divided into three groups randomly, 5 mice in each group. The control group was without any treatment. The BME group received 30% (v/v) BME through drinking water. M-I group received 30 mg/kg dose of M-I once in day, every day. Body weight was monitored, and tumor size was measured using a slide caliper and volume was calculated using the formula ½ L × W^2. After animal sacrifice tumors were dissected out and snap frozen in liquid nitrogen for further analysis. All the animal experiments were carried out in accordance NIH guidelines, following a protocol approved (1017) by the Institutional Animal Care and Use Committee (IACUC) of Saint Louis University.

JHU022 cells = experiment: Cytotoxicity assay (Cell Counting Kit-8); type: cell-based; details: Homo sapiens, 48 h
From the text: (§2) Normal oral keratinocytes (NOK) (kindly gifted by Dr. Karl Mugner, Tuffs University, Boston, MA, USA) were maintained in Keratinocyte SFM medium supplemented with EGF and bovine pituitary extract (GIBCO, Life Technologies, Berkeley, MO, USA) and 1% penicillin/ streptomycin. HNC cell line Cal27 was purchased from the ATCC. JHU029 (JHU-29) and JHU022 (JHU-22) cell lines were procured from the Johns Hopkins University (Baltimore, MD, USA). The Cal27 and JHU022 cells were maintained in Dulbecco’s Modified Eagle Medium (DMEM), and JHU029 cells were in RPMI1640 (Sigma, St. Louis, MO, USA) media supplemented with 10% FBS and 1% penicillin/ streptomycin (Sigma-Aldrich, St. Louis, MO, USA) in a humidified CO2 incubator. The cell lines are routinely tested in our laboratory to rule out mycoplasma contamination using a commercial MycoAlert™ Mycoplasma Detection kit (Lonza, Morrisville, NC, USA). Cal27 cells are tongue origin and JHU022 and JHU029 cells are from laryngx origin.
(§3) Cal27, JHU029, JHU022 and NOK were seeded in 96 well-plate (5000 cells/well) and cells were treated with different concentration of M-I for 48 h. There were untreated control and DMSO treated vehicle control group for comparison. Cytotoxicity assay was performed using Cell Counting Kit-8 (Dojindo Molecular Technology, Rockville, MD, USA) according to manufacturer instruction.

[1] = tested on: human normal oral keratinocytes (NOK); experiment: Cytotoxicity assay (Cell Counting Kit-8); type: cell-based; details: 48 h
From the text: as §2, §3

JHU029 cells = experiment: Cytotoxicity assay (Cell Counting Kit-8); type: cell-based; details: Homo sapiens, 48 h
From the text: as §2, §3

[2] = Pharmacokinetic study, single dose IP or oral gavage; type: in vivo, C57Bl/6 male mice; details: male C57Bl/6 mouse blood
[3] = as above; type: in vivo, C57Bl/6 male mice; details: for AUC(0-t) / Tmax / AUC(0-inf) / Cmax / half-life: male, C57Bl/6, mouse; for AUC(0-inf): read-out: AUCINF_obs (converted); for Cmax / half-life: 20 mg/kg; for half-life: read-out: T½ (elimination half-life) (converted)
Experimental: To evaluate the pharmacokinetic (PK) profile of M-I, a single dose (20 mg/kg) was given to C57Bl/6 male mice by either intraperitoneal injection (IP group; n = 3) or oral ga-vage (oral group; n = 3). A dose of 20 mg/kg was chosen based on previous publications. The average plasma concentration ± standard deviation at each time point is shown in Figure 5A and corresponding PK parameters are summarized in Table 2. M-I was rapidly absorbed with a maximum plasma concentration 1 h post-IP and PO dose. […] The observed elimination half-life was 0.9 h in the IP group and 2 h in the PO group. The oral group had loose stool, starting four hours post-dose, which had not re-solved by 8 h but all mice appeared normal after twenty-four hours. […] We therefore selected IP administration of M-I for subsequence studies.
The pharmacokinetic (PK) study of M-I was performed in male C57Bl/6 mice. A sin-gle dose of M-I (formulated at 2 mg/mL dissolved in 5% DMSO/95% of a 30% w:v Captisol solution) was administered either by intraperitoneal injection (IP group, n = 3) or oral ga-vage (PO group, n = 3). After dosing, 20 µL blood samples were collected into heparin pre-coated tubes at 5 min, 15 min, 30 min, 1 h, 2 h, 4 h, 6 h, 8 h and 24 h. Samples were centrifuged, and the plasma collected. M-I concentration was determined using liq-uid chromatography-mass spectrometry/mass spectrometry (LC-MS/MS) as described earlier.

Cal27 xenograft = experiment: Tumorigenicity assay, HNC xenograft model; type: in vivo, BALB/c athymic nude mice
Experimental: Figure 7 Therapeutic effect of momordicine-I in Cal27 xenograft model. Cal27 cells (1.5 × 10^6) cells were injected subcutaneously into the flank of nude mice. After formation of palpable tumor, mice were randomly divided into three groups (n = 5): Control (without any treatment), BME group (30% BME through drinking water) and M-I group (30 mg/kg IP, once in a day and every day). (A) Body weight was measured in control and treated mice. (B) Tumors were measured using a slide caliper and tumor volumes were calculated. Arrow indicates starting point BME/ M-I treatment. (C,D) Control or treated tumor lysates were subjected to Western blot analysis for c-Met and c-Myc expression using specific antibodies and representative bands are shown. The blot was reprobed with an antibody to Actin for normalization. […] Small bar indicates standard error (*, p < 0.05; **, p < 0.01; *** p < 0.001).
as §1

[4] = JHU029 xenograft tumor lysates, Western blot, vs untreated control tumors
[5] = Cal27 xenograft tumor lysates, Western blot, vs control

Compound: CC(C)=CC(O)CC(C)[C@H]1CC[C@@]2(C)[C@@H]3[C@@H](O)C=C4[C@@H](CC[C@H](O)C4(C)C)[C@]3(C=O)CC[C@]12C (stereo partly drawn) [M-I, (3S, 7S, 8S, 9R, 10R, 13R, 14S, 17R) 3,7-dihydroxy-17-(4-hydroxy-6-methylhept-5-en-2-yl)-4,4,13,14-tetramethyl-2,3,7,8,10,11, 12,15,16,17-decahydro-1H-cyclopenta[a]phenanthrene-9-carbaldehyde]
- c-Met expression in tumors (JHU029 xenograft; [4]): significant reduction
- c-Myc expression in tumors (JHU029 xenograft; [4]): significant reduction
- tumor growth reduction, M-I compared with BME (JHU029 xenograft; JHU029 xenograft, nude mice, M-I 30 mg/kg IP once a day): better effect
- tumor volume (JHU029 xenograft; JHU029 xenograft, nude mice, M-I 30 mg/kg IP once a day or 30% BME in drinking water, to day 32, vs untreated control): significantly reduced
- sudden drop in body weight (JHU029 xenograft; JHU029 xenograft, three out of five mice on Day 20, weight gained back, M-I 30 mg/kg IP once a day): ~ 10%
- IC50 (JHU022 cells): 17 µg/mL (≈ 36 µM)
- cytotoxic effect on normal oral keratinocytes [1]: minimum effect
- IC50 (JHU029 cells): 6.5 µg/mL (≈ 13.8 µM)
- stability in mouse blood [2]: stable
- adverse events in PK study ([3]; 20 mg/kg IP): No adverse events
- AUC (%Extrap) ([3]; 20 mg/kg IP, plasma, mean ± SD): 0.33 ± 0.08%
- AUC (%Extrap) ([3]; 20 mg/kg PO, plasma, mean ± SD): 6.84 ± 1.5%
- T½ (elimination half-life) ([3]; 20 mg/kg PO, plasma, mean ± SD): 2.11 ± 0.3 h
- adverse events in PK study ([3]; 20 mg/kg oral gavage, starting four hours post-dose, normal after twenty-four hours): loose stool
- AUC(0-t) ([3]; 20 mg/kg IP, plasma, mean ± SD): 12700 ng·h/mL
- Tmax ([3]; 20 mg/kg IP, plasma, mean ± SD): 1 h
- AUC(0-inf) ([3]; 20 mg/kg IP, plasma, mean ± SD): 12800 ng·h/mL
- AUC(0-t) ([3]; 20 mg/kg PO, plasma, mean ± SD): 643 ng·h/mL
- Tmax ([3]; 20 mg/kg PO, plasma, mean ± SD): 1 ± 0.9 h
- AUC(0-inf) ([3]; 20 mg/kg PO, plasma, mean ± SD): 688 ng·h/mL
- Cmax ([3]; plasma, ip, 20 mg/kg IP, mean ± SD): 18 µM and 8430 ng/mL
- half-life ([3]; plasma, ip, 20 mg/kg IP, plasma, mean ± SD): 0.9 ± 0.02 h
- Cmax ([3]; plasma, po, 20 mg/kg PO, mean ± SD): 500 nM and 214 ng/mL
- half-life ([3]; plasma, po, 20 mg/kg PO, plasma, mean ± SD): 2 h
- c-Met expression in tumors (Cal27 xenograft; [5]): significant reduction
- c-Myc expression in tumors (Cal27 xenograft; [5]): significant reduction
- reduction of tumor growth (Cal27 xenograft; Cal27 xenograft, nude mice, M-I 30 mg/kg IP once a day or 30% BME in drinking water): ~ 50%
- body weight (Cal27 xenograft; Cal27 xenograft, throughout the experiment): increasing body weight
